# Assay results: patent US5487990A (The General Hospital Corporation, priority 1992, dated 1996)
# “And” between values parts separate entries of the source, which are not always exact repeats. Equal values may be shown once. “Also recorded” adds a separate entry of the source. Read-outs that look alike come from different tables or passages of the source.
# Key:
# [1] = biological target: T1, Acetyl-CoA Hydrolase from S. cerevisiae (Saccharomyces cerevisiae, UniProt P32316); assay: biochemical; type: biochemical; conditions: for remaining activity at 10000 µM / remaining activity at 500 µM / remaining activity at 5000 µM / remaining activity at 1000 µM: read-out: Enzyme Activity (%)
# T1 sequence (P32316 1-526): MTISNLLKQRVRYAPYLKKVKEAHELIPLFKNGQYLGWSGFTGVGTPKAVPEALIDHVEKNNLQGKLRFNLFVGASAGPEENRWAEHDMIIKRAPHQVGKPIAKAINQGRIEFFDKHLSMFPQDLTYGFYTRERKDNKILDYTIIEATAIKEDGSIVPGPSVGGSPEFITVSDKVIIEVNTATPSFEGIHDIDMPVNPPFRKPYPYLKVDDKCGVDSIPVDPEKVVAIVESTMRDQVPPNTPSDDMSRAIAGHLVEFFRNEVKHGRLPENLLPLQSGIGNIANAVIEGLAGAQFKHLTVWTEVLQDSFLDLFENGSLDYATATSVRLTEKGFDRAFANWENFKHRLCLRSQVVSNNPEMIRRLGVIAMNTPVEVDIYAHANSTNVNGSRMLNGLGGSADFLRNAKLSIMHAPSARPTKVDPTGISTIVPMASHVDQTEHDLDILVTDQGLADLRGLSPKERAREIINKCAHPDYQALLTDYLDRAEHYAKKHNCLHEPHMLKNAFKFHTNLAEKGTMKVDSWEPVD
# [2] = tested on: mitochondrial acetyl-CoA hydrolase; conditions: cited from earlier work
# [3] = biological target: T1, Acetyl-CoA Hydrolase from S. cerevisiae; assay: biochemical; conditions: for remaining activity at 100 µM / remaining activity at 1000 µM / remaining activity at 10000 µM / remaining activity at 5000 µM: pH 7.4, read-out: Enzyme Activity (%); for Enzyme Activity (%): 100 mM potassium phosphate, pH 7.4, None = 100
# Description: The assay mixture was incubated at 30° C. for 0.30 s, 1 min, 2 min, 3 min, 4 min, and 5 min. The reaction was stopped by adding 20 μl of 10 M acetic acid. The sample was evaporated by N2 stream at 30° C. to dryness in a fume hood, dissolved in 100 μl H2 O, and transferred to a scintillation vial containing 10 ml Ready-Solv EP scintillation cocktail. The sample tube was washed twice with 100 μl H2 O, each wash was transferred to the scintillation vial, and the radioactivity was determined by scintillation counting for 1 min.
# nucleotides and divalent cations in 100 mM potassium phosphate, pH 7.4.
# The enzyme activity was determined under standard radioactive assay
# conditions using ACTH (1-24) (N = 3), as described in the Examples.
# acylCoA in 100 mM phosphate buffer, pH 7.4.
# [4] = biological target: T2, soluble cytosolic acetyl-CoA hydrolase found in rat liver (Rattus norvegicus, UniProt Q99NB7); conditions: rat liver cytoplasmic, cold-labile enzyme; cited from earlier work
# T2 construct: host or cells: rat liver cytoplasm (Prass et al. 1980; Soling et al. 1985)
# [5] = biological target: T1, Acetyl-CoA Hydrolase from S. cerevisiae; assay: Substrate specificity, colorimetric assay (DNTB, A412); type: biochemical; conditions: read-out: Relative Activity (%)
# [6] = biological target: Human ACTH (1-24) (human) (UniProt P01189)
# T2 sequence (Q99NB7 whole entry): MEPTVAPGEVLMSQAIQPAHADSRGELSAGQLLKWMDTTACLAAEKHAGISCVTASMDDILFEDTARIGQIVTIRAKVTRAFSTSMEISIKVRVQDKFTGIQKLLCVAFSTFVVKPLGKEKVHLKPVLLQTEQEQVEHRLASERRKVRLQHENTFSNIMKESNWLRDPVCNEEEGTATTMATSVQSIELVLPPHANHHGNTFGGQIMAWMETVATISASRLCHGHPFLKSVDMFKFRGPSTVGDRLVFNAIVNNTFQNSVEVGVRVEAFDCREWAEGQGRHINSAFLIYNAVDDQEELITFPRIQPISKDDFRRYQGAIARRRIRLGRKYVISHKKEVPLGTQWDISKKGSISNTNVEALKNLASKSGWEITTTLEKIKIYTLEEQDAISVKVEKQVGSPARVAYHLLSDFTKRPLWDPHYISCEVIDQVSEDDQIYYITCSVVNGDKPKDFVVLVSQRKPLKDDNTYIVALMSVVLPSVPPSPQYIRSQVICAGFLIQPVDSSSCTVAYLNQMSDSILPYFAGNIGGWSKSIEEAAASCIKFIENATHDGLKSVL
molecule,measurement,setting,value
O[C@@H](CS)[C@@H](O)CS (relative stereo) [DTT],inactivation by chemical modification (in words),[1],did not affect enzyme activity
same,remaining activity at 10000 µM,[1]; 0.25 h,104%
OCCS [2-mercaptoethanol],inactivation by chemical modification (in words),[1],did not affect enzyme activity
same,remaining activity at 10000 µM,[1]; 0.25 h,101%
Nc1ncnc2c1ncn2[C@@H]1O[C@H](COP(=O)(O)OP(=O)(O)O)[C@@H](O)[C@H]1O [ADP],effect on enzyme (in words),[2],not inhibited; also recorded: not affected
same,effect on yeast enzyme activity (in words),[3],not affected
same,remaining activity at 100 µM,[3],98%
same,remaining activity at 1000 µM,[3],94%
same,remaining activity at 10000 µM,[3],91%
same,effect on enzyme (in words),[4],inhibited
Nc1ncnc2c1ncn2[C@@H]1O[C@H](COP(=O)(O)O)[C@@H](O)[C@H]1O [AMP],remaining activity at 100 µM,[3],96%
same,remaining activity at 1000 µM,[3],89%
same,remaining activity at 10000 µM,[3],81%
Nc1ncnc2c1ncn2[C@@H]1O[C@H](COP(=O)(O)OP(=O)(O)OP(=O)(O)O)[C@@H](O)[C@H]1O [ATP],effect on enzyme (in words),[2],not activated; also recorded: not affected
same,effect on yeast enzyme activity (in words),[3],not affected
same,remaining activity at 100 µM,[3],101%
same,remaining activity at 1000 µM,[3],99%
same,remaining activity at 10000 µM,[3],96%
CC(=O)CC(=O)SCCNC(=O)CCNC(=O)[C@H](O)C(C)(C)COP(=O)(O)OP(=O)(O)OC[C@H]1O[C@@H](n2cnc3c(N)ncnc32)[C@H](O)[C@@H]1OP(=O)(O)O [Acetoacetyl-CoA],activity at 250 µM,[5],5%
same,remaining activity at 100 µM,[3],98%
same,remaining activity at 1000 µM,[3],92%
same,remaining activity at 5000 µM,[3],90%
CCCC(=O)SCCNC(=O)CCNC(=O)[C@H](O)C(C)(C)COP(=O)(O)OP(=O)(O)OC[C@H]1O[C@@H](n2cnc3c(N)ncnc32)[C@H](O)[C@@H]1OP(=O)(O)O [Butyryl-CoA],activity at 250 µM,[5],4%
same,remaining activity at 100 µM,[3],95%
same,remaining activity at 1000 µM,[3],86%
same,remaining activity at 5000 µM,[3],62%
[Ca+2].[Cl-].[Cl-] [CaCl2],Enzyme Activity (%),[3]; addition 1 mM,97%
same,Enzyme Activity (%),[3]; addition 10 mM,84%
[Cl][Cd][Cl] [CdCl2],Enzyme Activity (%),[3]; addition 1 mM,91%
same,Enzyme Activity (%),[3]; addition 10 mM,48%
"CC(C)(COP(=O)(O)OP(=O)(O)OC[C@H]1O[C@@H](n2cnc3c(N)ncnc32)[C@H](O)[C@@H]1OP(=O)(O)O)[C@@H](O)C(=O)NCCC(=O)NCCS [CoASH, coenzyme A]",effect on enzyme (in words),[2],only weakly inhibited; also recorded: weak inhibitor
same,effect on yeast enzyme activity (in words),[3],only weakly inhibited
same,inhibition at 25 µM,[3]; read-out: inhibition of hydrolysis of [1-14C] acetyl-CoA,< 30%
same,effect on enzyme (in words),[4],inhibited; also recorded: strong product inhibitor
[Cl-].[Cl-].[Co+2] [CoCl2],Enzyme Activity (%),[3]; addition 1 mM,86%
same,Enzyme Activity (%),[3]; addition 10 mM,51%
O=S(=O)([O-])[O-].[Cu+2] [CuSO4],Enzyme Activity (%),[3]; addition 1 mM,94%
same,Enzyme Activity (%),[3]; addition 10 mM,89%
"CCOC(=O)OC(=O)OCC [DEPC, diethyl pyrocarbonate]",inactivation by chemical modification (in words),[1],nearly complete inactivation; also recorded: inactivated
same,remaining activity at 500 µM,[1]; 0.25 h,19%
same,remaining activity at 5000 µM,[1]; 0.25 h,3%
O=S(=O)([O-])[O-].[Fe+2] [FeSO4],Enzyme Activity (%),[3]; addition 1 mM,98%
same,Enzyme Activity (%),[3]; addition 10 mM,88%
Nc1nc2c(ncn2[C@@H]2O[C@H](COP(=O)(O)OP(=O)(O)O)[C@@H](O)[C@H]2O)c(=O)[nH]1 [GDP],effect on enzyme (in words),[2],not inhibited
same,effect on enzyme (in words),[4],inhibited
"C[S+](C)Cc1cc([N+](=O)[O-])ccc1O.[Br-] [HNBS(CH3)2 --Br, dimethyl-(2-hydroxy-5-nitrobenzyl)sulfonium bromide]",inactivation by chemical modification (in words),[1],partially inactivated
same,remaining activity at 1000 µM,[1]; 0.25 h,84%
same,remaining activity at 10000 µM,[1]; 0.25 h,71%
"O=C(O)CI [IAA, iodoacetic acid]",remaining activity at 1000 µM,[1]; 0.25 h,99%
same,remaining activity at 10000 µM,[1]; 0.25 h,89%
"NC(=O)CI [IAM, iodoacetamide]",effect on enzyme activity (in words),[1],no effect; also recorded: partially inactivated
same,remaining activity at 1000 µM,[1]; 0.25 h,97%
same,remaining activity at 10000 µM,[1]; 0.25 h,85%
CC(C)(COP(=O)(O)OP(=O)(O)OC[C@H]1O[C@@H](n2cnc3c(N)ncnc32)[C@H](O)[C@@H]1OP(=O)(O)O)[C@@H](O)C(=O)NCCC(=O)NCCSC(=O)CC(=O)O [Malonyl-CoA],activity at 250 µM,[5],1%
same,remaining activity at 100 µM,[3],93%
same,remaining activity at 1000 µM,[3],83%
same,remaining activity at 5000 µM,[3],52%
[Cl-].[Cl-].[Mg+2] [MgCl2],Enzyme Activity (%),[3]; addition 1 mM,95%
same,Enzyme Activity (%),[3]; addition 10 mM,72%
O=S(=O)([O-])[O-].[Mg+2] [MgSO4],Enzyme Activity (%),[3]; addition 1 mM,98%
same,Enzyme Activity (%),[3]; addition 10 mM,75%
[Cl][Mn][Cl] [MnCl2],Enzyme Activity (%),[3]; addition 1 mM,84%
same,Enzyme Activity (%),[3]; addition 10 mM,64%
CCCCCCCCCCCCCC(=O)SCCNC(=O)CCNC(=O)[C@H](O)C(C)(C)COP(=O)(O)OP(=O)(O)OC[C@H]1O[C@@H](n2cnc3c(N)ncnc32)[C@H](O)[C@@H]1OP(=O)(O)O [Myristoyl-CoA],activity at 250 µM,[5],3%
same,remaining activity at 100 µM,[3],93%
same,remaining activity at 1000 µM,[3],83%
same,remaining activity at 5000 µM,[3],52%
CC(=O)n1ccnc1 [N-acetylimidazole],effect on enzyme activity (in words),[1],caused inactivation
same,remaining activity at 1000 µM,[1]; 0.25 h,101%
same,remaining activity at 10000 µM,[1]; 0.25 h,67%
"O=C1CCC(=O)N1Br [NBS, N-bromosuccinimide]",inactivation of the enzyme (in words),[1],complete inactivation
same,remaining activity at 500 µM,[1]; 0.25 h,30%
same,remaining activity at 5000 µM,[1]; 0.25 h,2%
same,inhibition at 500 µM,"[1]; 0.25 h, read-out: inactivation of the enzyme",70%
"CCN1C(=O)C=CC1=O [NEM, N-ethylmaleimide]",remaining activity at 1000 µM,[1]; 0.25 h,94%
same,remaining activity at 10000 µM,[1]; 0.25 h,52%
CCC(=O)SCCNC(=O)CCNC(=O)[C@H](O)C(C)(C)COP(=O)(O)OP(=O)(O)OC[C@H]1O[C@@H](n2cnc3c(N)ncnc32)[C@H](O)[C@@H]1OP(=O)(O)O [Propionyl-CoA],activity at 250 µM,[5],9%
same,remaining activity at 100 µM,[3],92%
same,remaining activity at 1000 µM,[3],89%
same,remaining activity at 5000 µM,[3],72%
O=C1CCC(=O)O1 [Succinic anhydride],effect on enzyme activity (in words),[1],no effect; also recorded: partial inactivation
same,remaining activity at 1000 µM,[1]; 0.25 h,95%
same,remaining activity at 10000 µM,[1]; 0.25 h,79%
CC(C)(COP(=O)(O)OP(=O)(O)OC[C@H]1O[C@@H](n2cnc3c(N)ncnc32)[C@H](O)[C@@H]1OP(=O)(O)O)[C@@H](O)C(=O)NCCC(=O)NCCSC(=O)CCC(=O)O [Succinyl-CoA],activity at 250 µM,[5],8%
same,remaining activity at 100 µM,[3],92%
same,remaining activity at 1000 µM,[3],79%
same,remaining activity at 5000 µM,[3],56%
O=S(=O)([O-])[O-].[Zn+2] [ZnSO4],Enzyme Activity (%),[3]; addition 1 mM,88%
same,Enzyme Activity (%),[3]; addition 10 mM,25%
[Zn+2] [Zn^2+],effect on yeast enzyme activity (in words),[3]; concentration not given,most potent inhibitor
NO [hydroxylamine],original enzyme activity recovered,"[1]; depc-inactivated acetyl-coa hydrolase, 480 min, 250000 µM",≈ 55%
"O=C(O)c1cc[c]([Hg][Cl])cc1 [pCMB, p-chloromercuribenzoate]",Enzyme Activity (%),[1],102% and 88%
NC(=O)C1=CN([C@@H]2O[C@H](COP(=O)(O)OP(=O)(O)OC[C@H]3O[C@@H](n4cnc5c(N)ncnc54)[C@H](O)[C@@H]3O)[C@@H](O)[C@H]2O)C=CC1 [βNADH],effect on enzyme (in words),[2],inhibited
same,effect on enzyme activity (in words),[3],appreciably decreased enzyme activity
same,effect on yeast enzyme activity (in words),[3],inhibited
same,remaining activity at 100 µM,[3],83%
same,remaining activity at 1000 µM,[3],69%
same,remaining activity at 10000 µM,[3],46%
NC(=O)C1=CN([C@@H]2O[C@H](COP(=O)(O)OP(=O)(O)OC[C@H]3O[C@@H](n4cnc5c(N)ncnc54)[C@H](OP(=O)(O)O)[C@@H]3O)[C@@H](O)[C@H]2O)C=CC1 [βNADPH],remaining activity at 100 µM,[3],99%
same,remaining activity at 1000 µM,[3],98%
same,remaining activity at 10000 µM,[3],96%
NC(=O)c1ccc[n+]([C@@H]2O[C@H](COP(=O)([O-])OP(=O)(O)OC[C@H]3O[C@@H](n4cnc5c(N)ncnc54)[C@H](O)[C@@H]3O)[C@@H](O)[C@H]2O)c1 [βNAD],remaining activity at 100 µM,[3],100%
same,remaining activity at 1000 µM,[3],98%
same,remaining activity at 10000 µM,[3],95%
yeast N-alpha-acetyltransferase (enzyme),"transfer of [3H] acetyl group from [3H] acetyl-CoA to ACTH (1-24), units",[6],63300 units
